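Grown in 96-well plates, cells were treated for 48 hours with each compound at five concentrations. Insufficient inhibition: endpoint recorded as highest concentration tested. Here, GI50 denotes the concentration required for 50% inhibition of growth.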 Activity calls are given as the source filed them. No stated cut-off is given here; in the data, active = GI50 up to about 1.1 µM and inactive = higher.

Some test systems named below: OVCAR-8; HT-29; COLO 205; HOP-62; TK-10; SNB-19; MDA-MB-231; Malme-3M; SK-MEL-28; OVCAR-4; SNB-75; SK-MEL-5; K562; SF-268; T47D; 786-0; IGROV-1; HCC 2998; DU-145; RXF 393.
Experiment in all cases: NCI anticancer screen, dose series, 48 h

Take `CCOC(=O)C1(Cc2ccc3c(c2)CCC3)Cc2cc3c(cc2C1=O)CCC3` (stereo unspecified): the GI50 with OVCAR-8 was > 91.2 µM (inactive); with HT-29, 31.6 µM (inactive); in the test on COLO 205, 41.7 µM (inactive); in the test on HOP-62, > 100 µM (inactive); with TK-10, > 100 µM (inactive); with SNB-19, > 100 µM (inactive). For the same molecule, the GI50 in the test with MDA-MB-231 is 48.4 µM (inactive); in the test on Malme-3M, > 61.2 µM (inactive); in the test on SK-MEL-28, > 100 µM (inactive); in the test with OVCAR-4, 52 µM (inactive); with SNB-75 it was 53.7 µM (inactive); with SK-MEL-5 it was 20.1 µM (inactive). For the same molecule, the GI50 in the test with K562 was 9.95 µM (inactive); with SF-268, 98.4 µM (inactive); in the test with T47D, 14.2 µM (inactive); in the test with 786-0, > 100 µM (inactive); in the test with IGROV-1, > 100 µM (inactive); in the test with HCC 2998 it was 62.5 µM (inactive). For the same molecule, in the test with DU-145, the GI50 is 75.5 µM (inactive).

With `c1ccc2c(c1)ccc1nc(-c3ccc4c(c3)OCO4)c3c(c12)CCCC3`, the GI50 in the test with OVCAR-8 is 20.2 µM (inactive); in the test with HT-29 it was 9.48 µM (inactive); with COLO 205, 20.3 µM (inactive); in the test on HOP-62, 41.9 µM (inactive); in the test on SNB-19 it was 77.8 µM (inactive); with MDA-MB-231, 4.48 µM (inactive). In addition, the GI50 in the test on Malme-3M was 20.8 µM (inactive); with SK-MEL-28, 30.2 µM (inactive); with OVCAR-4 it was 13.6 µM (inactive); in the test on SNB-75 it was 31.1 µM (inactive); in the test with K562, 16.3 µM (inactive); in the test with SF-268 it was 12.2 µM (inactive). Further, the figures for the GI50 in the test on T47D, with 786-0 and in the test on HCC 2998 were 11.3 µM (inactive), 26.1 µM (inactive) and 31.7 µM (inactive), respectively.

For `COC(=O)C(CCSc1ccccc1)C(=O)OC`, the GI50 in the test on OVCAR-8, in the test with HT-29, in the test on COLO 205, in the test on RXF 393, with HOP-62 and with MDA-MB-231 was > 100 µM (inactive) in each case. Further, the GI50 is 10.8 µM (inactive) in the test on Malme-3M; > 100 µM (inactive) in the test on SK-MEL-28; > 100 µM (inactive) in the test on OVCAR-4; > 100 µM (inactive) in the test on SNB-75; > 100 µM (inactive) in the test on SK-MEL-5; > 100 µM (inactive) in the test with T47D. Moreover, the GI50 with 786-0, in the test on IGROV-1 and in the test on HCC 2998 was > 100 µM (inactive) in each case.

As to `O=C(O)c1nc2ccc(C(F)(F)F)cc2nc1NCc1ccc(Cl)c(Cl)c1`, the GI50 in the test with OVCAR-8 was 16.3 µM (inactive); with HT-29 it was 15.2 µM (inactive); with COLO 205, 20.1 µM (inactive); in the test with HOP-62 it was 14.8 µM (inactive); with SNB-19 it was 12.6 µM (inactive); in the test with MDA-MB-231, 16.8 µM (inactive). In addition, the GI50 was 17.6 µM (inactive) with SK-MEL-28; 18.5 µM (inactive) with OVCAR-4; 20.7 µM (inactive) in the test on SNB-75; 21.4 µM (inactive) in the test with SK-MEL-5; 16.9 µM (inactive) in the test on K562; 16.6 µM (inactive) in the test on T47D. Also, the GI50 in the test on 786-0 was 15.9 µM (inactive); in the test with IGROV-1, 13.9 µM (inactive); in the test on HCC 2998, 16.4 µM (inactive); in the test on DU-145 it was 17 µM (inactive).

Consider `c1ccc(NNC2=NCCN2)cc1`, for which the GI50 in the test on OVCAR-8, in the test with HT-29, in the test with COLO 205, with HOP-62, with TK-10 and with SNB-19 was > 100 µM (inactive) throughout. Also, the GI50 with MDA-MB-231, with SK-MEL-28, in the test on OVCAR-4, with SNB-75, in the test on SK-MEL-5 and in the test with K562 was > 100 µM (inactive) each time. In addition, the GI50 with SF-268, in the test with T47D, in the test with 786-0, with IGROV-1 and with DU-145 was > 100 µM (inactive) in each case.

Regarding `COc1ccc(/C=C2\CCC(C)C3=C(c4ccc(OC)c(OC)c4)C(C#N)=C(N)OC32)cc1OC` (stereo unspecified), the GI50 was 4.01 µM (inactive) in the test with OVCAR-8; 2.75 µM (inactive) in the test with HT-29; 2.76 µM (inactive) in the test with COLO 205; 1.65 µM (inactive) in the test on RXF 393; 4.04 µM (inactive) with TK-10; 7.94 µM (inactive) with SNB-19. In addition, the GI50 in the test on MDA-MB-231 was 2.95 µM (inactive); in the test on Malme-3M, 2.48 µM (inactive); in the test with SK-MEL-28, 3.86 µM (inactive); with SNB-75, 2.33 µM (inactive); in the test with SK-MEL-5, 2.01 µM (inactive); in the test on K562, 3.78 µM (inactive). Moreover, the GI50 in the test on SF-268 is 9.77 µM (inactive); with T47D, 2.17 µM (inactive); with 786-0, 3.35 µM (inactive); with IGROV-1, 2.39 µM (inactive); in the test on DU-145, 5.5 µM (inactive).

In the case of `COc1ccc(CCn2ccc(=O)c(O)c2C)cc1OC`, the GI50 was 16.9 µM (inactive) in the test on OVCAR-8; 18.5 µM (inactive) in the test with HT-29; 26.7 µM (inactive) with COLO 205; 17.5 µM (inactive) with HOP-62; 5.87 µM (inactive) with TK-10; 16 µM (inactive) in the test with SNB-19. The GI50 with MDA-MB-231 was 1.4 µM (inactive); with Malme-3M it was 30.7 µM (inactive); with SK-MEL-5, 13.5 µM (inactive); in the test with K562, 37.1 µM (inactive); in the test with SF-268, 2.37 µM (inactive); in the test on T47D, 29.9 µM (inactive). For the same molecule, the GI50 in the test on 786-0 is 5 µM (inactive); in the test on DU-145, 12.4 µM (inactive).

`Cc1c(O)c(=O)ccn1CCc1ccc(O)cc1`: the GI50 is 31.3 µM (inactive) with OVCAR-8; 20.4 µM (inactive) with HT-29; 31.5 µM (inactive) in the test with COLO 205; 22.1 µM (inactive) with HOP-62; 15.8 µM (inactive) in the test on TK-10; 15.6 µM (inactive) in the test with SNB-19. For the same molecule, the GI50 with MDA-MB-231 was 2.2 µM (inactive); in the test with Malme-3M, 22.5 µM (inactive); with SK-MEL-28 it was 38.4 µM (inactive); in the test on OVCAR-4, 22 µM (inactive); with SK-MEL-5 it was 21.3 µM (inactive); in the test with K562, 32.7 µM (inactive). Besides, the GI50 with SF-268 is 9.51 µM (inactive); in the test with T47D it was 45.6 µM (inactive); in the test on 786-0, 6.32 µM (inactive); in the test with DU-145 it was 24.9 µM (inactive).

For `COc1cc(-c2ccccc2N)c2cccnc2c1OC`, the GI50 was 0.74 µM (active) in the test with HT-29; 6.38 µM (inactive) in the test with COLO 205; 15.2 µM (inactive) with RXF 393; 5.26 µM (inactive) in the test on HOP-62; 10.1 µM (inactive) with TK-10; 4.75 µM (inactive) with SNB-19. Also, the GI50 is 6.22 µM (inactive) in the test with MDA-MB-231; 14.9 µM (inactive) with Malme-3M; 17.9 µM (inactive) in the test on SK-MEL-28; 6.3 µM (inactive) in the test on OVCAR-4; 13 µM (inactive) with SK-MEL-5; 4.78 µM (inactive) in the test on K562. In addition, the GI50 with SF-268 is 3.1 µM (inactive); with T47D, 4.04 µM (inactive); in the test with 786-0, 2.83 µM (inactive); with IGROV-1, 2.97 µM (inactive); in the test with DU-145, 2.89 µM (inactive).

The record behind these values is ChEMBL document CHEMBL1201862, “PubChem BioAssay data set” (2004).
